Experimental data reported in ChEMBL document CHEMBL2401704, “Inhibition of rhodesain as a novel therapeutic modality for human African trypanosomiasis” (J Med Chem, 2013).
pEC50, pIC50, pKi: −log10 of the molar value. Residues, ends and D or L forms follow the SMILES beside them. *: point of attachment. Cbz = O=C(OCc1ccccc1)*; CH2Cl = ClC*

Key:
[1] = Inhibition of Plasmodium falciparum Falcipain 2
Plasmodium falciparum = test: Antiprotozoal activity against Plasmodium falciparum; format: functional, organism-based
[2] = tested on: Trypanosoma brucei rhodesiense; test: Antitrypanosomal activity against Trypanosoma brucei rhodesiense; format: functional, organism-based
Rhodesain = Rhodesain (Trypanosoma brucei rhodesiense, UniProt Q95PM0); test: Inhibition of Trypanosoma brucei rhodesiense rhodesain
L6 = test: Cytotoxicity against rat L6 cells; format: cell-based
Trypanosoma brucei [3] = test: Inhibition of Trypanosoma brucei rhodesain assessed as second order rate constant
[4] = Inhibition of Trypanosoma brucei recombinant rhodesain
[5] = tested on: Trypanosoma brucei brucei; test: Antitrypanosomal activity against blood stream form of Trypanosoma brucei brucei; format: functional, organism-based; conditions: for pEC50: read-out: ED50 (the source's name)
[6] = Inhibition of Trypanosoma brucei rhodesain
[7] = tested on: Trypanosoma brucei brucei; test: Antitrypanosomal activity against Trypanosoma brucei brucei; format: functional, organism-based
Cruzipain = Cruzipain (Trypanosoma cruzi, UniProt P25779); test: Inhibition of Trypanosoma cruzi cruzain
[8] = Inhibition of cathepsin B (unknown origin); parameters: species or system Homo sapiens
Papain = target: T1, Papain (Carica papaya, UniProt P00784); test: Inhibition of papaya papain
T1 sequence (P00784 whole entry): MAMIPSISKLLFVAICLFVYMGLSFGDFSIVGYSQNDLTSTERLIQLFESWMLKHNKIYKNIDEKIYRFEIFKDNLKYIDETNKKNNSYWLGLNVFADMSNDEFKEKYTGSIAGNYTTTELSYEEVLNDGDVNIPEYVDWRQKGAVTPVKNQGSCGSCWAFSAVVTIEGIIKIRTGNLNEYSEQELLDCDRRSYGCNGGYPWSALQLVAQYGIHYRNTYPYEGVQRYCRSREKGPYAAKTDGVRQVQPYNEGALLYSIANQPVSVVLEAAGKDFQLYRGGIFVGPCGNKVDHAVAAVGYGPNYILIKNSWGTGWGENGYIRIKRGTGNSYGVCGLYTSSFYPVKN

Trypsin = Trypsin (Homo sapiens, UniProt P07477+P07478+P35030); test: Inhibition of trypsin (unknown origin); format: protein assay
Trypanosoma brucei [9] = test: Antitrypanosomal activity against Trypanosoma brucei; format: functional, organism-based
[10] = tested on: Trypanosoma brucei brucei; test: Antitrypanosomal activity against procyclic form of Trypanosoma brucei brucei; format: functional; conditions: read-out: ED50 (the source's name)

Rhodesain, sequence (Q95PM0 whole entry): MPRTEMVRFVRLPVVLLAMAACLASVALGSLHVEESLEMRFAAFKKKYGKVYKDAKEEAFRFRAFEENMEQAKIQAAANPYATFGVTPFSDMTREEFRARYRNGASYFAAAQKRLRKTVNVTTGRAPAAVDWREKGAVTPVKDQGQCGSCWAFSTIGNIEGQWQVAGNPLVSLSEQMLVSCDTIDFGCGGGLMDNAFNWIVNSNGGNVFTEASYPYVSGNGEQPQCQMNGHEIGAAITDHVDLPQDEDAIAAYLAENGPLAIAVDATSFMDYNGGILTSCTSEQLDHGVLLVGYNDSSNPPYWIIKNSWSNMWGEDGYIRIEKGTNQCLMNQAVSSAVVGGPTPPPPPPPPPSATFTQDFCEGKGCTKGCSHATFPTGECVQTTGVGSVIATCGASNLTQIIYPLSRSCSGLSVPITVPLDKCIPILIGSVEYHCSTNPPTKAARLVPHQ
Cruzipain, sequence (P25779 whole entry): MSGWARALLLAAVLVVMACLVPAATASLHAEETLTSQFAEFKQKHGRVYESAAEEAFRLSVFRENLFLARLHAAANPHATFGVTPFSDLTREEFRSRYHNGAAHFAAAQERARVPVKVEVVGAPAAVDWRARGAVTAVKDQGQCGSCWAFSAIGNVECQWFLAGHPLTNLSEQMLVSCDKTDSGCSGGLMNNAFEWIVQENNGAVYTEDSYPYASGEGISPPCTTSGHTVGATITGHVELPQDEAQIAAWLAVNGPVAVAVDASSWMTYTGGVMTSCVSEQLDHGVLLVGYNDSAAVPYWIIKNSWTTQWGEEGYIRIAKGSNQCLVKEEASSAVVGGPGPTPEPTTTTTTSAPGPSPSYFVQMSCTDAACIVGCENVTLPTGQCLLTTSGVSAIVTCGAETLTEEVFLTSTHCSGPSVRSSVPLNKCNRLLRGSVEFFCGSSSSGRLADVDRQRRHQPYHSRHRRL

SMILES: N#Cc1nc(N2CCOCC2)nc(N(Cc2ccc3c(c2)OCO3)C2CCCCC2)n1
- pKi [1]: 7.70
- pIC50 (Plasmodium falciparum): 5.54
- pIC50 [2]: 4.52
- pKi (Rhodesain): 8.10
- pIC50 (L6): 4.95

SMILES: O=C(N[C@@H](Cc1ccccc1)C(=O)N[C@H](/C=C/S(=O)(=O)c1ccccc1)CCc1ccccc1)OCc1ccccc1
- K (Trypanosoma brucei [3]): 1.61 ×10⁷ /M/min

SMILES: N/C(S)=N/N=C(\C=C\c1ccccc1)c1ccc(Cl)c(Cl)c1
- pIC50 [2]: 7.14

SMILES: CN(C(=O)[C@H](Cc1ccccc1)NC(=O)c1ccc2c(c1)OCCO2)N(C#N)Cc1ccccc1
- pIC50 [4]: 9.29

SMILES: C[C@H](NC(=O)[C@H](Cc1ccccc1)NC(=O)OCc1ccccc1)C(=O)CF
- pIC50 [5]: 4.51

SMILES: CN(C(=O)[C@H](Cc1ccccc1)NC(=O)OCc1ccccc1)N(C#N)CCc1ccccc1
- pIC50 [4]: 9.09

SMILES: NC(=S)/N=N/c1c(O)[nH]c2ccccc12
- pIC50 [6]: 5.46

SMILES: O=C(N[C@@H](Cc1ccccc1)C(=O)N[C@H](/C=C/S(=O)(=O)CCc1ccccc1)CCc1ccccc1)OCc1ccccc1
- K (Trypanosoma brucei [3]): 1.09 ×10⁷ /M/min

SMILES: COCCNc1nc(C#N)nc(N(Cc2cccc(C(F)(F)F)c2)C2C3CC4CC(C3)CC2C4)n1 (stereo unspecified)
- pKi [1]: 5.01
- pIC50 (Plasmodium falciparum): 5.74
- pIC50 [2]: 4.71
- pIC50 (L6): 5.09

SMILES: N=C(NC(=O)OCc1ccccc1)NC(=O)c1ccc(C(=O)NCc2cccc(NC(=O)OCc3ccccc3)c2)[nH]1
- pKi [1]: 5.79
- pKi [6]: 7.00
- pIC50 [7]: 5.63

SMILES: N#Cc1nc(N2CCOCC2)nc(N(Cc2cccc(C(F)(F)F)c2)C2C3CC4CC(C3)CC2C4)n1 (stereo unspecified)
- pKi [1]: 4.89
- pIC50 (Plasmodium falciparum): 5.96
- pIC50 [2]: 4.56
- pIC50 (L6): 4.63

SMILES: N=C(NC(=O)OCc1ccccc1)NC(=O)c1ccc(C(=O)NCc2ccccc2)o1
- pKi [1]: 5.57
- pKi [6]: 5.68

SMILES: CSc1cccc(NC(=O)Nc2sc3ccccc3c2Cl)c1
- pIC50 [6]: > 5.00
- pIC50 (Cruzipain): > 5.00

SMILES: CN(C#N)N(C)C(=O)[C@H](Cc1ccccc1)NC(=O)OC(C)(C)C
- pIC50 [4]: 10.22

SMILES: CS(=O)(=O)c1sc(C(=O)NC(=S)Nc2ccc(OC(F)(F)F)cc2)c2ccccc12
- pIC50 [8]: 4.96
- pIC50 [6]: 5.38
- pIC50 (Papain): < 4.30
- IC50 (Trypsin): > 50000 nM
- pIC50 (Cruzipain): 5.16

SMILES: CN(C(=O)[C@H](Cc1ccccc1)NC(=O)c1ccc2c(c1)OCCO2)N(C#N)CCc1ccccc1
- pIC50 [4]: 8.73

SMILES: NC(=S)/N=N/c1c(O)[nH]c2ccc(I)cc12
- pIC50 [6]: 6.00

SMILES: CN(C#N)N(C)C(=O)[C@H](Cc1ccccc1)NC(=O)OCc1ccccc1
- pIC50 [4]: 9.40

SMILES: CC(C)C[C@H](NC(=O)c1ccc2c(c1)OCCO2)C(=O)N(C)N(C#N)CCCc1ccccc1
- pIC50 [4]: 9.85

SMILES: CC(C)C[C@H](NC(=O)N1CCOCC1)C(=O)N[C@H](/C=C/S(=O)(=O)c1ccccc1)CCc1ccccc1
- K (Trypanosoma brucei [3]): 15.8 ×10⁶ /M/min

SMILES: O=C(N[C@@H](Cc1ccccc1)C(=O)N[C@@H](Cc1ccccc1)C(=O)CCl)OCc1ccccc1 (Cbz-Phe-Phe-CH2Cl)
- pIC50 [5]: 5.44

SMILES: CCN(CC)/C(S)=N/N=C(\C)c1cccc(Br)c1
- pIC50 [6]: 5.74
- pIC50 (Trypanosoma brucei [9]): 5.52

SMILES: N=C(NC(=O)OCc1ccccc1)NC(=O)c1ccc(C(=O)NCc2ccccc2)[nH]1
- pKi [1]: 5.11
- pKi [6]: 7.30
- pIC50 [7]: 5.04

SMILES: CCCCCN(C#N)N(C)C(=O)[C@H](CC(C)C)NC(=O)c1ccc2c(c1)OCCO2
- pIC50 [4]: 9.48

SMILES: O=C(N[C@@H](Cc1ccccc1)C(=O)N[C@H](/C=C/S(=O)(=O)Nc1ccccc1)CCc1ccccc1)OCc1ccccc1
- K (Trypanosoma brucei [3]): 2.24 ×10⁶ /M/min

SMILES: O=C1C(=O)N(S(=O)(=O)c2ccccc2)c2ccccc21
- pIC50 [6]: 4.82

SMILES: CC(C)(C)OC(=O)NCc1cccc(NC(=O)c2ccc(C(=O)NC(=N)NC(=O)OCc3ccccc3)[nH]2)c1
- pKi [1]: 6.21
- pKi [6]: 6.96
- pIC50 [7]: 6.66

SMILES: CN(C(=O)[C@H](Cc1ccccc1)NC(=O)OCc1ccccc1)N(C#N)CCCc1ccccc1
- pEC50 [5]: 5.92
- pEC50 [10]: 6.15
- pIC50 [4]: 8.70

SMILES: C/C(=N\N=C(\N)S)c1ccc(Nc2ccccc2)cc1
- pIC50 [6]: 4.74
- pIC50 (Trypanosoma brucei [9]): 5.35

SMILES: CN(C(=O)[C@H](Cc1ccccc1)NC(=O)OCc1ccccc1)N(C#N)Cc1ccccc1
- pEC50 [5]: 5.96
- pEC50 [10]: 6.40
- pIC50 [4]: 9.72

SMILES: CC(C)C[C@H](NC(=O)c1ccc2c(c1)OCCO2)C(=O)N(C)N(C#N)CCc1ccccc1
- pIC50 [4]: 9.15

SMILES: CC(C)(C)OC(=O)Nc1cccc(CNC(=O)c2ccc(C(=O)NC(=N)NC(=O)OCc3ccccc3)o2)c1
- pKi [1]: 5.41
- pKi [6]: 5.28
- pIC50 [7]: 5.49

SMILES: C/C(=N\N=C(\N)S)c1cccc(-c2ccccc2)c1
- pIC50 [6]: 5.96
- pIC50 (Trypanosoma brucei [9]): 4.92

SMILES: CCCC1CCC(N(Cc2ccc3c(c2)OCO3)c2nc(C#N)nc(N3CCOCC3)n2)CC1 (stereo unspecified)
- pKi [1]: 5.99
- pIC50 (Plasmodium falciparum): 5.62
- pIC50 [2]: 4.51
- pKi (Rhodesain): 8.70
- pIC50 (L6): 5.23

SMILES: C/C(=N\N=C(\N)S)c1cccc(Br)c1
- pIC50 [6]: 7.30
- pIC50 (Trypanosoma brucei [9]): < 4.70
